# Results: patent publication US11000033B2, “Ketone or oxime compound, and herbicide” (NISSAN CHEMICAL CORPORATION, priority 2014, dated 2021)
# What was measured:
# Format in all cases: in vivo
# Scirpus juncoides = test: Test Example 2: herbicidal activity, application during weed generation in submerged conditions (symbol B); conditions: Table 23; application herbicide amount 320 g/ha; grade 0-5 by criteria of Test Example 1
# Method in brief: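 Read-out: herbicidal effect on each species rated on a visual scale 3 weeks after treatment. Plants were raised together from seed in flooded alluvial soil (4 cm water) at 25° C. to 30° C. and treated at one to two leaves by water-surface application of diluted emulsion.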
# [1] = test system: Echinochloa crus-galli var. crus-galli; test: Test Example 3: herbicidal effect by foliage application, Wagner pot (symbol H); conditions: application herbicide amount 320 g/ha
# Method in brief: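 Scoring took place 3 weeks after application, using fixed criteria. Plants had been raised from seed for 14 days at 25 to 30 °C in submerged alluvial soil before a diluted emulsion of the test compound was sprayed uniformly on the leaves.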
# Monochoria vaginalis = test: Test Example 1: herbicidal activity, application before weed generation in submerged conditions (symbol C); conditions: application herbicide amount 320 g/ha
# Method in brief: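 Weeds are sown into submerged alluvial soil alongside transplanted 2.5-leaf rice, and the compound, as an emulsion diluted to a set rate, is applied onto the water before emergence. Rating on the 0–5 herbicidal-ratio scale follows 3 weeks of greenhouse growth at 25–30 °C.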
# soybean = test: Test Example 5: effect on crop by foliage application, plastic box (symbol d); conditions: 320 g/ha, 3 weeks after application
# Method in brief: (§1)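 Greenhouse culture at 25° C. to 30° C. followed spot-like sowing into sterilized diluvial soil, with seed covered by roughly 1.5 cm of soil.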
# Avena fatua = test: Test Example 5: herbicidal effect by foliage application, plastic box (symbol I); conditions: 320 g/ha, 3 weeks after application
# Method in brief: (§2)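 Seeds were sown in sterilized diluvial soil, covered with about 1.5 cm of soil and grown 14 days in a greenhouse at 25° C. to 30° C. An emulsifiable formulation diluted in water to a set rate was sprayed over foliage, and injury was scored 3 weeks later.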
# Veronica persica = test: Test Example 5: herbicidal effect by foliage application, plastic box (symbol R); conditions: 320 g/ha, 3 weeks after application
# Method in brief: as §2
# [2] = test system: directly sowed rice plant; test: Test Example 3: effect on crop by foliage application, Wagner pot (symbol b); conditions: application herbicide amount 320 g/ha
# Method in brief: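 Alluvial soil in a 1/10000-are Wagner pot was flooded to a water depth of 0.1–0.5 cm. Echinochloa crus-galli var. crus-galli, Leptochloa chinensis, Cyperus difformis and rice were sown into it and grown in a greenhouse at 25–30 °C.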
# Galium spurium = test: Test Example 4: herbicidal effect by soil treatment (symbol Q)
# Method in brief: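 Seeds were sown in sterilized diluvial soil, covered with about 1.5 cm of soil, and the soil surface was sprayed with a water-diluted emulsion of the compound at a predetermined rate. Plants grew in a greenhouse at 25° C. to 30° C.; effects were scored visually 3 weeks after application.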
# rapeseed = test: Test Example 5: effect on crop by foliage application, plastic box (symbol g); conditions: 320 g/ha, 3 weeks after application
# Method in brief: as §1
# beet = test: Test Example 4: effect on crop by soil treatment (symbol f); conditions: for f: beet, effect on crop grade: application herbicide amount 320 g/ha
# Method in brief: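 The test used sterilized diluvial soil. Seed was set down in spots and overlaid with about 1.5 cm of soil before growth in a greenhouse kept at 25° C. to 30° C.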
# [3] = application herbicide amount 320 g/ha
structure (smiles),measurement,setting,value
CON=C(C)CC1CC(OC(=O)c2c(Cl)nn(C)c2Cl)=C(c2c(C)cc(C)cc2C)C1=O (stereo not drawn) [1-160],"Herbicidal effect grade, B: Scirpus juncoides",Scirpus juncoides,4 (Herbicidal ratio of 70% or higher and lower than 90%)
same,"herbicidal effect on H (Echinochloa crus-galli var. crus-galli), grade 0-5",[1],5 (Herbicidal ratio of 90% or more (almost completely withered))
same,"Herbicidal effect grade, C: Monochoria vaginalis",Monochoria vaginalis,2 (Herbicidal ratio of 20% or higher and lower than 40%)
same,"d: soybean, effect on crop grade",soybean,2 (Herbicidal ratio of 20% or higher and lower than 40%)
same,"I: Avena fatua, herbicidal effect grade",Avena fatua,5 (Herbicidal ratio of 90% or more (almost completely withered))
same,"R: Veronica persica, herbicidal effect grade",Veronica persica,3 (Herbicidal ratio of 40% or higher and lower than 70%)
same,"effect on crop b (directly sowed rice plant), grade 0-5",[2],5 (Herbicidal ratio of 90% or more (almost completely withered))
same,"Q: Galium spurium, herbicidal effect grade",Galium spurium; 320 g/ha,0 (Herbicidal ratio of 5% or lower (almost no effect))
same,"g: rapeseed, effect on crop grade",rapeseed,5 (Herbicidal ratio of 90% or more (almost completely withered))
same,"f: beet, effect grade on crop",beet; 320 g/ha,0 (Herbicidal ratio of 5% or lower (almost no effect))
Cc1cc(C)c(C2=C(O)CC(CC(=O)CC3CC3)C2=O)c(C)c1 (stereo not drawn) [2-026],"Herbicidal effect grade, B: Scirpus juncoides",Scirpus juncoides,3 (Herbicidal ratio of 40% or higher and lower than 70%)
same,"herbicidal effect on H (Echinochloa crus-galli var. crus-galli), grade 0-5",[1],5 (Herbicidal ratio of 90% or more (almost completely withered))
same,"Herbicidal effect grade, C: Monochoria vaginalis",Monochoria vaginalis,0 (Herbicidal ratio of 5% or lower (almost no effect))
same,"d: soybean, effect on crop grade",soybean,0 (Herbicidal ratio of 5% or lower (almost no effect))
same,"I: Avena fatua, herbicidal effect grade",Avena fatua,4 (Herbicidal ratio of 70% or higher and lower than 90%)
same,"R: Veronica persica, herbicidal effect grade",Veronica persica,0 (Herbicidal ratio of 5% or lower (almost no effect))
same,"effect on crop b (directly sowed rice plant), grade 0-5",[2],5 (Herbicidal ratio of 90% or more (almost completely withered))
same,"Q: Galium spurium, herbicidal effect grade",Galium spurium; [3],0 (Herbicidal ratio of 5% or lower (almost no effect))
same,"g: rapeseed, effect on crop grade",rapeseed,3 (Herbicidal ratio of 40% or higher and lower than 70%)
same,"f: beet, effect on crop grade",beet,0 (Herbicidal ratio of 5% or lower (almost no effect))
CON=C(C)CC1CC(O)=C(c2c(C)cc(-c3ccc(C(F)(F)F)cc3)cc2C)C1=O (mixture of isomers) [6-016],"Herbicidal effect grade, B: Scirpus juncoides",Scirpus juncoides,0 (Herbicidal ratio of 5% or lower (almost no effect))
same,"herbicidal effect on H (Echinochloa crus-galli var. crus-galli), grade 0-5",[1],5 (Herbicidal ratio of 90% or more (almost completely withered))
same,"Herbicidal effect grade, C: Monochoria vaginalis",Monochoria vaginalis,0 (Herbicidal ratio of 5% or lower (almost no effect))
same,"d: soybean, effect on crop grade",soybean,0 (Herbicidal ratio of 5% or lower (almost no effect))
same,"I: Avena fatua, herbicidal effect grade",Avena fatua,4 (Herbicidal ratio of 70% or higher and lower than 90%)
same,"R: Veronica persica, herbicidal effect grade",Veronica persica,3 (Herbicidal ratio of 40% or higher and lower than 70%)
same,"effect on crop b (directly sowed rice plant), grade 0-5",[2],5 (Herbicidal ratio of 90% or more (almost completely withered))
same,"Q: Galium spurium, herbicidal effect grade",Galium spurium; [3],0 (Herbicidal ratio of 5% or lower (almost no effect))
same,"g: rapeseed, effect on crop grade",rapeseed,1 (Herbicidal ratio of 5% or higher and lower than 20%)
same,"f: beet, effect on crop grade",beet,0 (Herbicidal ratio of 5% or lower (almost no effect))
CCOC(=O)C(C(=O)C(F)(F)F)C1CC(O)=C(c2c(C)cc(C)cc2C)C1=O (stereo not drawn) [2-010],"Herbicidal effect grade, B: Scirpus juncoides",Scirpus juncoides,0 (Herbicidal ratio of 5% or lower (almost no effect))
same,"herbicidal effect on H (Echinochloa crus-galli var. crus-galli), grade 0-5",[1],3 (Herbicidal ratio of 40% or higher and lower than 70%)
same,"Herbicidal effect grade, C: Monochoria vaginalis",Monochoria vaginalis,0 (Herbicidal ratio of 5% or lower (almost no effect))
same,"d: soybean, effect on crop grade",soybean,0 (Herbicidal ratio of 5% or lower (almost no effect))
same,"I: Avena fatua, herbicidal effect grade",Avena fatua,0 (Herbicidal ratio of 5% or lower (almost no effect))
same,"R: Veronica persica, herbicidal effect grade",Veronica persica,0 (Herbicidal ratio of 5% or lower (almost no effect))
same,"effect on crop b (directly sowed rice plant), grade 0-5",[2],1 (Herbicidal ratio of 5% or higher and lower than 20%)
same,"Q: Galium spurium, herbicidal effect grade",Galium spurium; [3],0 (Herbicidal ratio of 5% or lower (almost no effect))
same,"g: rapeseed, effect on crop grade",rapeseed,0 (Herbicidal ratio of 5% or lower (almost no effect))
same,"f: beet, effect on crop grade",beet,0 (Herbicidal ratio of 5% or lower (almost no effect))
CON=C(C)CC1CC(O)=C(c2c(C)cc(-c3ccc(C)cc3)cc2C)C1=O (mixture of isomers) [6-018],"Herbicidal effect grade, B: Scirpus juncoides",Scirpus juncoides,4 (Herbicidal ratio of 70% or higher and lower than 90%)
same,"herbicidal effect on H (Echinochloa crus-galli var. crus-galli), grade 0-5",[1],5 (Herbicidal ratio of 90% or more (almost completely withered))
same,"Herbicidal effect grade, C: Monochoria vaginalis",Monochoria vaginalis,4 (Herbicidal ratio of 70% or higher and lower than 90%)
same,"d: soybean, effect on crop grade",soybean,3 (Herbicidal ratio of 40% or higher and lower than 70%)
same,"I: Avena fatua, herbicidal effect grade",Avena fatua,4 (Herbicidal ratio of 70% or higher and lower than 90%)
same,"R: Veronica persica, herbicidal effect grade",Veronica persica,4 (Herbicidal ratio of 70% or higher and lower than 90%)
same,"effect on crop b (directly sowed rice plant), grade 0-5",[2],5 (Herbicidal ratio of 90% or more (almost completely withered))
same,"Q: Galium spurium, herbicidal effect grade",Galium spurium; [3],0 (Herbicidal ratio of 5% or lower (almost no effect))
same,"g: rapeseed, effect on crop grade",rapeseed,3 (Herbicidal ratio of 40% or higher and lower than 70%)
same,"f: beet, effect on crop grade",beet,0 (Herbicidal ratio of 5% or lower (almost no effect))
CON=C(C)CC1CC(O)=C(c2c(C)cc(-c3ccc(OC)cc3)cc2C)C1=O (mixture of isomers) [6-017],"Herbicidal effect grade, B: Scirpus juncoides",Scirpus juncoides,3 (Herbicidal ratio of 40% or higher and lower than 70%)
same,"herbicidal effect on H (Echinochloa crus-galli var. crus-galli), grade 0-5",[1],5 (Herbicidal ratio of 90% or more (almost completely withered))
same,"Herbicidal effect grade, C: Monochoria vaginalis",Monochoria vaginalis,0 (Herbicidal ratio of 5% or lower (almost no effect))
same,"d: soybean, effect on crop grade",soybean,0 (Herbicidal ratio of 5% or lower (almost no effect))
same,"I: Avena fatua, herbicidal effect grade",Avena fatua,5 (Herbicidal ratio of 90% or more (almost completely withered))
same,"R: Veronica persica, herbicidal effect grade",Veronica persica,3 (Herbicidal ratio of 40% or higher and lower than 70%)
same,"effect on crop b (directly sowed rice plant), grade 0-5",[2],5 (Herbicidal ratio of 90% or more (almost completely withered))
same,"Q: Galium spurium, herbicidal effect grade",Galium spurium; [3],0 (Herbicidal ratio of 5% or lower (almost no effect))
same,"g: rapeseed, effect on crop grade",rapeseed,3 (Herbicidal ratio of 40% or higher and lower than 70%)
same,"f: beet, effect on crop grade",beet,0 (Herbicidal ratio of 5% or lower (almost no effect))
